# Patent US7960377B2 (priority 2008, dated 2011)
# pEC50: −log10 of the molar value. Where two headings read alike, the source gives them in different places.
# Key:
# Assay in all cases: cell-based
# human CB2 receptor = human CB2 receptor (Homo sapiens, UniProt P34972); assay type: cell-based
# human CB1 receptor = human CB1 receptor (Homo sapiens, UniProt P21554)
# rat CB2 receptor = biological target: T1, rat CB2 receptor (Rattus norvegicus, UniProt Q9QZN9); assay type: cell-based
# T1 sequence (Q9QZN9 1-360): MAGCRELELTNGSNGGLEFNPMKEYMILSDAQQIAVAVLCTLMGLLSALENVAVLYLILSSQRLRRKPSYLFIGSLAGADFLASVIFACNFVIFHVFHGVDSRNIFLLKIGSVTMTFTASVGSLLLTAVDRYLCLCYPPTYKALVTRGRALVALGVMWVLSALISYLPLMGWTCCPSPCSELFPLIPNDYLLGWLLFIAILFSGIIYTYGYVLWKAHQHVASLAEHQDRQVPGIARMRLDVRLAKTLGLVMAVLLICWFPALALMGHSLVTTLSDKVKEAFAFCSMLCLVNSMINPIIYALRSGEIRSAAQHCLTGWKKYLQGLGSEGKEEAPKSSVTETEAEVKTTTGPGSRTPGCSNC
# human CB2 receptor, sequence (P34972 whole entry): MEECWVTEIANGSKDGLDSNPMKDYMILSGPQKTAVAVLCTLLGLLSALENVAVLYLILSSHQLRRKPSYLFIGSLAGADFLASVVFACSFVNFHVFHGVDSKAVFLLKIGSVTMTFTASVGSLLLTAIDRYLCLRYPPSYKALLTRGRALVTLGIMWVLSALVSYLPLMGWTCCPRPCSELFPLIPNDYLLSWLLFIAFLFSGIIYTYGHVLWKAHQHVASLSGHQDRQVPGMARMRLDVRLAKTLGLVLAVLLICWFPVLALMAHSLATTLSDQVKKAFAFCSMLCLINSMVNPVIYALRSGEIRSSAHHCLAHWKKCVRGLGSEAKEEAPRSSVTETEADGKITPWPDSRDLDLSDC
# human CB1 receptor, sequence (P21554 whole entry): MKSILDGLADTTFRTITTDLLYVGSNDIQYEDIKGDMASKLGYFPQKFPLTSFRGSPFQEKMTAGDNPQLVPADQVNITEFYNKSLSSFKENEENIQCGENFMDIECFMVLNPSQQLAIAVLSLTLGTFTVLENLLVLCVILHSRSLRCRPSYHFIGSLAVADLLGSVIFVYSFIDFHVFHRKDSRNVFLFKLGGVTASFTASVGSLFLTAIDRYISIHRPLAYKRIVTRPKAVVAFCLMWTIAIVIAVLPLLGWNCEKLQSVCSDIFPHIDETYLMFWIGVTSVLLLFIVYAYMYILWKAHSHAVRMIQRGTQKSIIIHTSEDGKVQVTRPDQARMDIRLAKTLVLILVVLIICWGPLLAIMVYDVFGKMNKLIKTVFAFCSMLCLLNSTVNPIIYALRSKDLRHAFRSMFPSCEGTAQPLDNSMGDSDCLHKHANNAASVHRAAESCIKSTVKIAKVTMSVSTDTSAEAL
SMILES,pEC50 (human CB2 receptor),pEC50 (human CB1 receptor),pEC50 (rat CB2 receptor),"pEC50 (human CB2 receptor; change in intracellular cAMP, CHO-K1 hCB2 cells, class AR, read-out: EC50 values for human CB2 receptor)"
"CCC(C)(C)NC(=O)c1cnc2c(c1)N(S(=O)(=O)N1CCC(N3CCCC3)CC1)CCO2 [Example 177, N-tert-pentyl-1-(4-(pyrrolidin-1-yl)piperidin-1-ylsulfonyl)-2,3-dihydro-1H-pyrido[2,3-b][1,4]oxazine-7-carboxamide]",< 4.52,< 4.52,< 4.52,–
"CC(C)(CO)NC(=O)c1cnc2c(c1)N(S(=O)(=O)N1CCC(Cl)CC1)CCO2 [Example 186, 1-(4-chloropiperidin-1-ylsulfonyl)-N-(1-hydroxy-2-methylpropan-2-yl)-2,3-dihydro-1H-pyrido[2,3-b][1,4]oxazine-7-carboxamide]",< 4.52,< 4.52,≥ 7.52,–
"CC(C)(CO)CNC(=O)c1cnc2c(c1)N(S(=O)(=O)N1CCc3ccccc3C1)CCO2 [Example 191, 1-(3,4-dihydroisoquinolin-2(1H)-ylsulfonyl)-N-(3-hydroxy-2,2-dimethylpropyl)-2,3-dihydro-1H pyrido[2,3-b][1,4]oxazine-7-carboxamide]",< 4.52,< 4.52,≥ 7.52,–
"CN(CC(C)(C)CO)C(=O)c1cnc2c(c1)N(S(=O)(=O)N1CCc3ccccc3C1)CCO2 [Example 192, 1-(3,4-dihydroisoquinolin-2(1H)-ylsulfonyl)-N-(3-hydroxy-2,2-dimethyl-propyl)-N-methyl-2,3-dihydro-1H-pyrido[2,3-b][1,4]oxazine-7-carboxamide]",< 4.52,< 4.52,< 4.52,–
"CC(C)(C)NC(=O)c1cnc2c(c1)N(S(=O)(=O)N1CC(F)(F)C1)CCO2 [Example 193, N-tert-butyl-1-(3,3-difluoroazetidin-1-ylsulfonyl)-2,3-dihydro-1H-pyrido[2,3-b][1,4]oxazine-7-carboxamide]",< 4.52,< 4.52,≥ 7.52,–
"CCC(C)(C)NC(=O)c1cnc2c(c1)N(S(=O)(=O)N1CC(F)(F)C1)CCO2 [Example 194, 1-(3,3-difluoroazetidin-1-ylsulfonyl)-N-tert-pentyl-2,3-dihydro-1H-pyrido[2,3-b][1,4]oxazine-7-carboxamide]",< 4.52,< 4.52,≥ 7.52,–
"O=C(NC1(C(=O)O)CC1)c1cnc2c(c1)N(S(=O)(=O)c1ccc(C(F)(F)F)cc1)CCO2 [Example 206, 1-(1-(4-(trifluoromethyl)phenylsulfonyl)-2,3-dihydro-1H-pyrido[2,3-b][1,4]oxazine-7-carboxamido)cyclopropanecarboxylic acid]",–,< 4.52,< 4.52,< 4.52
"CC(C)(C)NC(=O)c1cnc2c(c1)N(Cc1ccc(F)cc1)C(=O)CO2 [Example 218, N-tert-butyl-1-(4-fluorobenzyl)-2-oxo-2,3-dihydro-1H-pyrido[2,3-b][1,4]oxazine-7-carboxamide]",≥ 7.52,< 4.52,≥ 7.52,–
